# Data as given in paper PMC6340889, “Structural basis of AimP signaling molecule recognition by AimR in Spbeta group of bacteriophages” (Protein & Cell, 2018).
# Ends that are not written are not given here.
# Biological target: T1, full-length AimR (wild-type) (Bacillus phage SPbeta, UniProt O64094)
# T1 construct: 6xHis (C); made in house; host or cells: E. coli BL21 (DE3)
# Assay: Isothermal titration calorimetry (ITC), AimP vs wild-type AimR
# Parameters: species or system Bacillus subtilis SPbeta phage
# Settings: wild-type full-length AimR 10–20 μM in cell, AimP 200–500 μM in syringe; 20 mM Tris-HCl (pH 8.0), 150 mM NaCl; 25°C; MicroCal iTC200; read-out: Kd (dissociation constant) for AimP binding
# Protocol: DNA sequence encoding full-length AimR from Bacillus subtilis SPbeta phage was cloned into the pET-28a vector with a C-terminal 6×His-tag. The construct was introduced into E.coli BL21 (DE3) cells. The recombinant strains were cultured in LB medium at 37°C until the OD600 reached 0.8. After 16 h of induction with 0.5 mM IPTG at 16°C, the cells were harvested by centrifugation at 5, 000 rpm for 30 min at 4°C. The pelleted cells were then resuspended in the lysis buffer containing 50 mM Tris-HCl (pH 8.0) and 150 mM NaCl, and subsequently lysed by ultrasonication. The lysate was then centrifuged at 17,000 rpm for 30 min at 4°C. Protein purification was carried out following the routine procedure (Jiang et al., 2017). Briefly, the supernatant was loaded onto a Ni-NTA column (Qiagen). The target protein was eluted with 50 mM Tris-HCl (pH 8.0) containing 150 mM NaCl and 250 mM imidazole. The fractions containing purified protein were pooled, concentrated to 0.5 ml and loaded onto a Superdex200 increase column (GE Healthcare) equilibrated with buffer containing 20 mM Tris-HCl (pH 8.0) and 150 mM NaCl. All the AimR mutant proteins were purified following the same protocol.
# ITC experiments were performed using a MicroCal iTC200 instrument (Malvern Instruments Ltd.). […] The resulting isotherms were recorded and fitted with Origin software (OriginLab).
# T1 sequence (O64094 whole entry): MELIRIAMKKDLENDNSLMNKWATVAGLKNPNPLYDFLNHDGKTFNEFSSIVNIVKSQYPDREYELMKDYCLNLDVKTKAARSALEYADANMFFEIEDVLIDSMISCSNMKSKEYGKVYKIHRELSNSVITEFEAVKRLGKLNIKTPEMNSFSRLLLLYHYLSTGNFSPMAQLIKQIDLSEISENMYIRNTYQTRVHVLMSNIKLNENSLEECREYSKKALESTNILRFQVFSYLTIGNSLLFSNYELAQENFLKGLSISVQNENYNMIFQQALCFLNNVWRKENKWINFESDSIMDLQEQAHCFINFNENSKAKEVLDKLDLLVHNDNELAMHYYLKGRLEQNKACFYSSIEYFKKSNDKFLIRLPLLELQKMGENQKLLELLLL
substance,measurement,value
GMPRGA [AimP],Kd,40 nM
